According to patent US8841312B2, “Fused pyridine, pyrimidine and triazine compounds as cell cycle inhibitors” (Amgen Inc., priority 2007, dated 2014):

Legend:
Cdk4/CyclinD1 = Cdk4/CyclinD1 (Homo sapiens (Human), UniProt P11802); experiment: Cdk4 kinase inhibition assay with recombinant Cdk4/CyclinD1, Rb substrate, [33P]-ATP filter plate; assay type: biochemical; settings: 25 μM ATP, read-out: Cdk 4 IC50
Outline: (§1)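 Recombinant Cdk4/CyclinD1 or Cdk6/CyclinD3 phosphorylated Rb protein with [33P]-ATP for 1 h at room temperature. Protein was TCA-precipitated on filter plates and bound radioactivity counted. IC50 by nonlinear regression.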

Cdk6/CyclinD3 = Cdk6/CyclinD3 (Homo sapiens (Human), UniProt Q00534); experiment: Cdk6 kinase inhibition assay with recombinant Cdk6/CyclinD3, Rb substrate, [33P]-ATP filter plate; assay type: biochemical; settings: 25 μM ATP, read-out: Cdk 6 IC50
Chain of Cdk6/CyclinD3 (Q00534 whole entry): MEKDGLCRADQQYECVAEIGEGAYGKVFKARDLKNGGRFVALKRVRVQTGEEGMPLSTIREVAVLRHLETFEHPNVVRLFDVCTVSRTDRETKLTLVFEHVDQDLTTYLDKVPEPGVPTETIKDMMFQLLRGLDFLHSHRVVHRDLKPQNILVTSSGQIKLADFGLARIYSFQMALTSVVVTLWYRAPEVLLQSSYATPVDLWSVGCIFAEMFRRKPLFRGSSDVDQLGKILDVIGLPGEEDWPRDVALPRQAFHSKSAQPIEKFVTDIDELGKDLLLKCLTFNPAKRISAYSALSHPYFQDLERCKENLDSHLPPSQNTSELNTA
Chain of Cdk6/CyclinD3 (P30281 whole entry partner): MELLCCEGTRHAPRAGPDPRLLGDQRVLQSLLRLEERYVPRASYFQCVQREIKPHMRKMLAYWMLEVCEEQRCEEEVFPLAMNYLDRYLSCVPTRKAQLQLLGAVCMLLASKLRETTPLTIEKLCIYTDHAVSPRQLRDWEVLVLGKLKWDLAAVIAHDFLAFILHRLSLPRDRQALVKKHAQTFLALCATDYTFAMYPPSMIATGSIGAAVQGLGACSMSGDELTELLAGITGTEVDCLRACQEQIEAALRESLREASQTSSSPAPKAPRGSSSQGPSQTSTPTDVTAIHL
Outline: as §1

Chain of Cdk4/CyclinD1 (P11802 whole entry): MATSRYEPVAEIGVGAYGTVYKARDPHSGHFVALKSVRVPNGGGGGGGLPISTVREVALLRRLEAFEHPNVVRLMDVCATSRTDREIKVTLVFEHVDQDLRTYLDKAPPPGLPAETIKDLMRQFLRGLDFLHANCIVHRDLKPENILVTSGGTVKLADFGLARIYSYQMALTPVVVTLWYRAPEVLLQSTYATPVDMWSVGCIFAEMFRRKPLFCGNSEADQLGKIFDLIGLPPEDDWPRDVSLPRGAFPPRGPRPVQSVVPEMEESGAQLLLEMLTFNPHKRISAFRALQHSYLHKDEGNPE
Chain of Cdk4/CyclinD1 (P24385 whole entry partner): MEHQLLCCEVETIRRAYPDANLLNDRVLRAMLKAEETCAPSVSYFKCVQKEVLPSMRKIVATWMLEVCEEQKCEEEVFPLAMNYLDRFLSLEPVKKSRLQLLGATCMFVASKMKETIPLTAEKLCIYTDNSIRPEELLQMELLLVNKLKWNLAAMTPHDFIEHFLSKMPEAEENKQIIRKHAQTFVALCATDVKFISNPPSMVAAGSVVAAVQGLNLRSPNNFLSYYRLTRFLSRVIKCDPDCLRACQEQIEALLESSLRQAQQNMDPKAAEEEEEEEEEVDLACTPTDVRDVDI

IC50 (Cdk4/CyclinD1) | IC50 (Cdk6/CyclinD3) | SMILES
177 nM | 275 nM | CN(C)C1CCN(c2ccc(Nc3ncc4c5ccncc5n([C@H]5CCC[C@H]5O)c4n3)nn2)CC1 [Example 355]
3.2 nM | 2.7 nM | O=C1CNCCN1Cc1ccc(Nc2ncc3c4ccncc4n(C4CCCC4)c3n2)nc1 [Example 226, 1-((6-((9-cyclopentyl-9H-pyrido[4′,3′:4,5]pyrrolo[2,3-d]pyrimidin-2-yl)amino)-3-pyridinyl)methyl)-2-piperazinone]
3.6 nM | 11 nM | CC[C@@H](C)n1c2cnccc2c2cnc(Nc3ccc(N4CCNCC4)cn3)nc21 [Example 320]
16 nM | 16 nM | CN(C)C1CCN(C(=O)c2ccc(Nc3ncc4c5ccncc5n(C5CCCC5)c4n3)nc2)CC1 [Example 230, 9-Cyclopentyl-N-(5-((4-(dimethylamino)-1-piperidinyl)carbonyl)-2-pyridinyl)-9H-pyrido[4′,3′:4,5]pyrrolo[2,3-d]pyrimidin-2-amine]
3 nM | 11 nM | CNC1CCN(c2ccc(Nc3ncc4c5ccncc5n(C5CCCC5)c4n3)nn2)CC1 [Example 77]
3.1 nM | 15.9 nM | O=S1(=O)CCC(Nc2ccc(Nc3ncc4c5ccncc5n(C5CCCC5)c4n3)nn2)C1 (stereo not drawn) [Example 93]
580 nM | 830 nM | CN(C)C1CCN(c2ccc(Nc3ncc4c5ccncc5n([C@H]5CCC[C@H]5O)c4n3)nc2)CC1 [Example 354]
12 nM | 15.7 nM | N[C@H]1CCN(c2ccc(Nc3ncc4c5ccncc5n(C5CCCC5)c4n3)nn2)C1 [Example 108]
2.8 nM | 24 nM | c1cc2c3cnc(Nc4ccc(N[C@H]5CCNC5)cn4)nc3n(C3CCCC3)c2cn1 [Example 64]
3.5 nM | 1.1 nM | CC1(C)CCC(n2c3cnccc3c3cnc(Nc4ccc(N5CCNCC5)cn4)nc32)CC1 [Example 204, 9-(4,4-dimethylcyclohexyl)-N-(5-(1-piperazinyl)-2-pyridinyl)-9H-pyrido[4′,3′:4,5]pyrrolo[2,3-d]pyrimidin-2-amine]
0.13 nM | 1.1 nM | c1cc2c3cnc(Nc4cnc(N5CCNCC5)nc4)nc3n(C3CCCC3)c2cn1 [Example 8, 9-cyclopentyl-N-(2-(1-piperazinyl)-5-pyrimidinyl)-9H-pyrido[4′,3′:4,5]pyrrolo[2,3-d]pyrimidin-2-amine]
1.5 nM | 13 nM | C[C@@H](CO)NC1CCN(c2ccc(Nc3ncc4c5ccncc5n(C5CCCC5)c4n3)nn2)CC1 [Example 442]
36 nM | 59 nM | CC[C@@H](C)n1c2cnccc2c2cnc(Nc3ccc(N4CCC(N(C)C)CC4)nn3)nc21 [Example 316]
340 nM | 350 nM | O[C@H]1CCN(C2CCN(c3ccc(Nc4ncc5c6ccncc6n(C6CCCC6)c5n4)nc3)CC2)C1 [Example 462]
9.7 nM | 28 nM | CCN(CCO)C1CCN(c2ccc(Nc3ncc4c5ccncc5n(C5CCCC5)c4n3)nc2)CC1 [Example 473]
27 nM | 13.4 nM | N#Cc1nccc2c3cnc(Nc4ccc(N5CCNCC5)cn4)nc3n(C3CCCC3)c12 [Example 188, 9-Cyclopentyl-2-((5-(1-piperazinyl)-2-pyridinyl)amino)-9H-pyrido[4′,3′:4,5]pyrrolo[2,3-d]pyrimidine-8-carbonitrile]
13 nM | 18 nM | O[C@@H]1CCCN(C2CCN(c3ccc(Nc4ncc5c6ccncc6n(C6CCCC6)c5n4)nn3)CC2)C1 [Example 451]
90 nM | 103 nM | OCCCn1c2cnccc2c2cnc(Nc3ccc(N4CC[C@@H](O)C4)nn3)nc21 [Example 353]
21 nM | 15 nM | CNC1CCN(c2ccc(Nc3ncc4c5ccncc5n(C5CCC5)c4n3)nc2)CC1 [Example 345]
60 nM | 34 nM | CC1(C)CN(c2ccc(Nc3ncc4c5ccccc5n(C5CCCC5)c4n3)nn2)CCN1 [Example 299]
3.1 nM | 10 nM | NC1CCN(c2ccc(Nc3ncc4c5ccncc5n(C5CCCC5)c4n3)nc2)CC1 [Example 11]
